Our source for the EC50 values is ChEMBL document CHEMBL5150002, “Molecular Glues for Targeted Protein Degradation: From Serendipity to Rational Discovery” (J Med Chem, 2021).

The target in experiment [1] is T1, DNA damage-binding protein 1/Cyclin-dependent kinase 12/Cyclin-K (Homo sapiens, UniProt O75909+Q16531+Q9NYV4). Briefly: Molecular glue activity at human CDK12/CCNK (11 to 267 residues)/human DDB1-CUL4-RBX1 expressed in baculovirus expression system in human 293 TA cells assessed as CCNK protein degradation.
The target of experiment [2] is T1, DNA damage-binding protein 1/Cyclin-dependent kinase 12/Cyclin-K. Briefly: Molecular glue activity at human CDK12 (715 to 1052 residues)/Cyclin K/human DDB1-[…]-RBX1 expressed in baculovirus expression system assessed as Cyclin K protein degradation.

T1 sequence (O75909 whole entry, the tested form may be a part): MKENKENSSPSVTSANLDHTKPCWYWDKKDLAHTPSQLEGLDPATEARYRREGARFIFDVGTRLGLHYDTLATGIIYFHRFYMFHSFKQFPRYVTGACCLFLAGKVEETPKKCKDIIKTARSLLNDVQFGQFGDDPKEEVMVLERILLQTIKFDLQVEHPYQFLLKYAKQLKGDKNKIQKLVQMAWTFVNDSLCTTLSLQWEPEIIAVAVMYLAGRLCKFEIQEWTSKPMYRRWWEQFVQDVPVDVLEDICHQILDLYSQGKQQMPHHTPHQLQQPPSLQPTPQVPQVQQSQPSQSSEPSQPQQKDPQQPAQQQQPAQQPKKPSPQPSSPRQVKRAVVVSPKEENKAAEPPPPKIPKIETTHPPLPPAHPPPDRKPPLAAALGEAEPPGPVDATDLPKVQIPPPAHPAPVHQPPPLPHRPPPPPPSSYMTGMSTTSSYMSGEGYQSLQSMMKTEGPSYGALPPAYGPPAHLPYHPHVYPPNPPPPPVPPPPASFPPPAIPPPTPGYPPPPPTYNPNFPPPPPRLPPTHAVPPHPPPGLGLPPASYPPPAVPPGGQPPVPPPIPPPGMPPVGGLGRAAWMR
T1 sequence (Q9NYV4 whole entry, the tested form may be a part): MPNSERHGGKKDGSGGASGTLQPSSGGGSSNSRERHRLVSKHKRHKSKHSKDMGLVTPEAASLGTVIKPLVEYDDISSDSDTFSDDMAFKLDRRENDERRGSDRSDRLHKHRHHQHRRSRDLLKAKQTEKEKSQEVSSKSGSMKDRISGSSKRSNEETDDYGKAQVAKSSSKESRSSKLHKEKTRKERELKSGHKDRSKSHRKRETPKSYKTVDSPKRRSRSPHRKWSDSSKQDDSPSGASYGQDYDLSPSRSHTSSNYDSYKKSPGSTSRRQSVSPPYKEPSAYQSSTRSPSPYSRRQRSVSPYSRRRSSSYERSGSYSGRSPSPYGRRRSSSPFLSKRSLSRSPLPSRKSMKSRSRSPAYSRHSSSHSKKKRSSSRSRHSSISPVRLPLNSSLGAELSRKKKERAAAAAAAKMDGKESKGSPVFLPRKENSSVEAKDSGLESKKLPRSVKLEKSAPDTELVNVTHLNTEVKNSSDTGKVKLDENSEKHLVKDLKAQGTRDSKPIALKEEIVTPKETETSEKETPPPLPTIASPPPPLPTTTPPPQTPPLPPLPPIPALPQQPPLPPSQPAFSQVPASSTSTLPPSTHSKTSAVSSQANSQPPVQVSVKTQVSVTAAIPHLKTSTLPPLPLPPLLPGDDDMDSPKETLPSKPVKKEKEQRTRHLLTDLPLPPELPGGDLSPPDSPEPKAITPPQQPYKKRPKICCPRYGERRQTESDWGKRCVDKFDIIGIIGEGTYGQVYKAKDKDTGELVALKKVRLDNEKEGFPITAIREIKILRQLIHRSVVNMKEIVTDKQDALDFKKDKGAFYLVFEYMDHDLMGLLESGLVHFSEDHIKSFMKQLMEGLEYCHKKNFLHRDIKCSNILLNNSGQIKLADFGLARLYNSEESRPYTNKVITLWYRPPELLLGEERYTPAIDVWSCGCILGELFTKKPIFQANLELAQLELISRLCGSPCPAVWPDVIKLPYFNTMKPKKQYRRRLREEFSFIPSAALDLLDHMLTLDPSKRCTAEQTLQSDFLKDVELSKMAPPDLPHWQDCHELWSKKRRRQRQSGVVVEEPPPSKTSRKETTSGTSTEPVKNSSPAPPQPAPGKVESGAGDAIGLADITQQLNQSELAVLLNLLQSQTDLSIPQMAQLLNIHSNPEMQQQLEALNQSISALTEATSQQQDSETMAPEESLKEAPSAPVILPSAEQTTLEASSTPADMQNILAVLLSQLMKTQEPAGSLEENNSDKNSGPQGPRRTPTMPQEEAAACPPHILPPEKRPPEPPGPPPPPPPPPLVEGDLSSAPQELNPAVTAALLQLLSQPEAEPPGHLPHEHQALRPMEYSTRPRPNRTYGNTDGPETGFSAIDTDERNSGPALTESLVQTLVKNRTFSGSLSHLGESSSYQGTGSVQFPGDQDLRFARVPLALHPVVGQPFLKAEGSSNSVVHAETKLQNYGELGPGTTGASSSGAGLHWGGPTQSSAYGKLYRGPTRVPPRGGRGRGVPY
T1 sequence (Q16531 whole entry, the tested form may be a part): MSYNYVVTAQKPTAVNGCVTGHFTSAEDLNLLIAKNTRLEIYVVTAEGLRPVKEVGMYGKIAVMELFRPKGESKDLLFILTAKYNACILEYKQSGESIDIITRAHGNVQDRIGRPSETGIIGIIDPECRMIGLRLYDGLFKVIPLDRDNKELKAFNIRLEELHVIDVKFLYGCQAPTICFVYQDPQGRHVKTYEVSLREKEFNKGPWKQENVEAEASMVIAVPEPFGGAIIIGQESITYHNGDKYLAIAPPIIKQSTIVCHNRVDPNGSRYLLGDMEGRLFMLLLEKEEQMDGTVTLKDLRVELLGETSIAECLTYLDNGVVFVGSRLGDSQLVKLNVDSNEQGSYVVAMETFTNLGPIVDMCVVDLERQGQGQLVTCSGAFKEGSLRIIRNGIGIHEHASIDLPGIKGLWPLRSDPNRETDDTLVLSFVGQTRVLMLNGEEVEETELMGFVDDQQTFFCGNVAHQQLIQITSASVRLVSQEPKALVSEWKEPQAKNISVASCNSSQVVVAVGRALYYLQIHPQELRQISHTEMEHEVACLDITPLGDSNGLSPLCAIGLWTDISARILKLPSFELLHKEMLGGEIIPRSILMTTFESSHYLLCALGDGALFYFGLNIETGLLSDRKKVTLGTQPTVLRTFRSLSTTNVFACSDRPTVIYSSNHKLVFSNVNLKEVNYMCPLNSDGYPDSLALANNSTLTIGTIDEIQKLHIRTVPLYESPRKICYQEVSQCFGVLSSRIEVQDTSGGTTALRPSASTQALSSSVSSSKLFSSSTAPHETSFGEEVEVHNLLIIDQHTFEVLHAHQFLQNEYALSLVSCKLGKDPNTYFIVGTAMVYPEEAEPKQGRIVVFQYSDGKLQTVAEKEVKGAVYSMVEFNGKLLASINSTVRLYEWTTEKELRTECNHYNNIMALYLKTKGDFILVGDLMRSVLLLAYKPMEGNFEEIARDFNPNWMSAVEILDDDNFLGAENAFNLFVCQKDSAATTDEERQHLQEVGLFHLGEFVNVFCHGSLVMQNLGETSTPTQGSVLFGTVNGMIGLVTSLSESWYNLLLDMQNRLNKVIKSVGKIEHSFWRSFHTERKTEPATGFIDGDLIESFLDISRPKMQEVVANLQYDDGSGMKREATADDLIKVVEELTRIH

Broadly, the EC50 is the concentration giving half of the maximal effect. On to `Cc1cccc(Nc2nc(CC(=O)Nc3ncc(C)s3)cs2)n1`, for which the EC50 in experiment [1] came out at 0.132 µM; in experiment [2] it was 0.461 µM.
Regarding `Cc1cnc(NC(=O)Cc2csc(Nc3cccc(CO)n3)n2)s1`, the EC50 in experiment [1] is 0.041 µM.
